The source of these data is publication PMC11187126, “Structure and dynamics of the pyroglutamylated RF-amide peptide QRFP receptor GPR103” (Nature Communications, 2024).

As a reminder, the Emax is the greatest response seen or fitted, relative to the assay's reference. By EC50 is commonly meant the concentration needed to bring the measured effect to its halfway point. A lower EC50 goes with a more potent agent.

No end group written: not given here.

The target in this assay is T1, GPR103 Q184^4.64A (Homo sapiens, UniProt Q96P65, Q184A).
T1 construct: we used human full-length QRFPR-encoding plasmids; expressed in transfected cells; host or cells: HEK293 cells, pCAGGS vector
T1 sequence (Q96P65 1-431 Q184A): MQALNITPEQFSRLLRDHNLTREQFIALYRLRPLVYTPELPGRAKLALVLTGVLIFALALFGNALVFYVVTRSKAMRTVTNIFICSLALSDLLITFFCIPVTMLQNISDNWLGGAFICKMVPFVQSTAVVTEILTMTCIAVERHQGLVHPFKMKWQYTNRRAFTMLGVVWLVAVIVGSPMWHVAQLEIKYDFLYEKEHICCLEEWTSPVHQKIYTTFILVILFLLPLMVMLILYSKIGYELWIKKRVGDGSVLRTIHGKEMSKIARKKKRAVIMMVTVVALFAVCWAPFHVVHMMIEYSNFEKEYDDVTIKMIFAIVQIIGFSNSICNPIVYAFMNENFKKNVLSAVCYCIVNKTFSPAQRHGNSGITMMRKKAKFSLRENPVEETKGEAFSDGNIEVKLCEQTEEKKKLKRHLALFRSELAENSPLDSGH
In words: TGFα shedding assay; Exp. level WT (1:5). Type of assay: cell-based. As for the experimental part: For the TGFα shedding assay and the flow cytometry analysis, we used human full-length QRFPR-encoding plasmids. Specifically, GPR103 was N-terminally modified with an HA signal sequence followed by a FLAG epitope and then a flexible linker ([…]; the FLAG epitope is underlined) and inserted into the pCAGGS vector. Plasmid encoding GPR103 mutants were generated using Quickchange Site-Directed Mutagensis kit (Agilent).
The TGFα shedding assay was performed as described previously with minor modifications. Plasmid transfection was performed in a 6-well plate with a mixture of 500 ng (per well in a 6-well plate) AP-TGFα-encoding plasmid and 200 ng GPR103-encoding plasmid. After 1-day culture, the transfected cells were harvested by trypsinization, pelleted by centrifugation at 190 × g for 5 min, and washed once with 5 mM HEPES (pH 7.4)-containing Hank’s Balanced Salt Solution (HBSS). After centrifugation, the cells were resuspended in 8 mL of the HEPES-containing HBSS. The cell suspension was seeded in a 96-well culture plate (cell plate) at a volume of 90 μL (per well hereafter) and incubated in a 37 °C incubator with 5% CO2 for 30 min. […] After spinning the cell plates at 190 × g for 2 min, 80 μL of conditioned media was transferred to an empty 96-well plate (conditioned media (CM) plate). Then, 80 μL of AP reaction solution (10 mM p-nitrophenylphosphate (p-NPP), 120 mM Tris-HCl (pH 9.5), 40 mM NaCl, and 10 mM MgCl2) was dispensed into the cell plates and the CM plates. Absorbance at 405 nm of the plates was measured using a microplate reader (SpectraMax 340 PC384, Molecular Devices) before and after 1-h incubation at room temperature. Ligand-induced AP-TGFα release was calculated by subtracting spontaneous AP-TGFα release signal from ligand-induced AP-TGFα release signal. The AP-TGFα release signals were fitted to a four-parameter sigmoidal concentration–response curve, using the Prism 10 software (GraphPad Prism). For each replicate experiment, the pEC50 parameter (negative logarithmic values of EC50 values) of the individual GPR103 mutants were normalized to that of the wild-type GPR103 performed in parallel, and resulting ∆pEC50 values were used to denote ligand response activity of the mutants. […]
Exp. le vel: WT (1:5 0)Exp. le vel: WT (1:5 0)Exp. le vel: WT (1:5 0)Exp. le vel: WT (1:2 0)Exp. le vel: WT (1:2 0)Exp. le vel: WT (1:1 0) […]
L1 4N - t e r mA F2 5N - t e r mA I 2 6N - t e r mA Y 2 9N - t e r mA C 9 82 .5 7A T10 22 .6 1A Exp . l eve l: WT (1 :5)Exp . l evel : >WT (1 :1)Exp. le vel: WT (1:2 0)Exp. le vel: WT (1:2 0)Exp. le vel: WT (1:5 0)Exp . l eve l: WT (1 :1) […]
Exp. le vel: WT (1:1 0)Exp. le vel: WT (1:2 0) C 1 1 83 .2 5AExp. le vel: WT (1:5 0)Exp. le vel: WT (1:5 0)Exp. le vel: WT (1:2 0)Exp . l eve l: WT (1 :5) […]
Exp. le vel: WT (1:5 0)Exp. le vel: WT (1:1 0)Exp. le vel: WT (1:5 0) E203ECL2AExp . l evel : >WT (1 :1)Exp. le vel: WT (1:5 0)Exp. le vel: WT (1:5 0) […]
Exp . l eve l: WT (1 :1) F28Exp. le vel: WT (1:5 0) C 2 8 56 .4 7AExp. le vel: WT (1:2 0) WExp. le vel: WT (1:2 0) F28Exp. le vel: WT (1:5 0)Exp . l evel : >WT (1 :1) […]
Exp. le vel: WT (1:5 0)Exp. le vel: WT (1:5 0) C 3 2 77 .4 8AExp . l eve l: WT (1 :5)Exp . l evel : >WT (1 :1)Exp . l evel : >WT (1 :1) […]
Suppl eme nt ary Figure 1 | Mutational analysis of GPR103. […]
mutants. Data are presented as mean values ± SEM, normally n=3-5; dots), each performed in triplicate. b-d Cell-surface expression (b) and QRFP26-in-duced activation of GPR103 (c, d) were analyzed by the flow cytometry and the TGFα shedding assay, respectively. From the concentration–response curves (a), Emax (c) and ΔpEC50 (d) values relative to the wild type were calculated. Colors in the mutant bars indicate an expression level matching to that of titrated wild type. Statistical analyses were performed using the ordinary one-way ANOVA followed by Dunnett tests with the expression-matched […]

TSGPLGNLAEELNGYSRKKGGFSFRF-NH2 [QRFP26]: the maximal effect (Emax) (mean) came to 99.8%. Where the note is “n = 3”, this substance had an EC50 of 234 nM and an Emax of 103 ± 2.2%.
